# Measured values: ChEMBL document CHEMBL3046894, “Synthesis and Herbicidal Activity of Pyrimidinyl Salicylic and Thiosalicylic Acids” (J Pestic Sci, 1996)
# Activity calls are given as the source filed them. The calls are words filed in the database; no cut-off is given here.
# Tests used:
# Abutilon theophrasti [1] = assay: Post-emergence herbicidal activity against Abutilon theophrasti (velvetleaf) assessed as mortality at 6.3 g a.i/10 a applied 11 days after germination as foliar spray; assay type: functional; conditions: 264 h
# [2] = (§1) Pre-emergence phytotoxicity against Gossypium hirsutum (cotton) assessed as mortality at 6.3 g a.i/10 a; assay type: organism-based; conditions: in vivo, 6.3 g a.i/10 a, read-out: Activity
# Gossypium hirsutum [3] = assay: Pre-emergence phytotoxicity against Gossypium hirsutum (cotton) assessed as mortality at 1.6 g a.i/10 a; assay type: organism-based; conditions: in vivo, other
# [4] = (§2) Pre-emergence phytotoxicity against Glycine max (soybean) assessed as mortality at 1.6 g a.i/10 a; assay type: organism-based; conditions: in vivo, 1.6 g a.i/10 a, read-out: Activity
# [5] = (§3) Pre-emergence phytotoxicity against Glycine max (soybean) assessed as mortality at 6.3 g a.i/10 a; assay type: organism-based; conditions: in vivo, 6.3 g a.i/10 a, read-out: Activity
# [6] = (§4) Pre-emergence phytotoxicity against Zea mays (maize) assessed as mortality at 1.6 g a.i/10 a; assay type: organism-based; conditions: in vivo, 1.6 g a.i/10 a, read-out: Activity
# Zea mays [7] = assay: Pre-emergence phytotoxicity against Zea mays (maize) assessed as mortality at 6.3 g a.i/10 a; assay type: organism-based; conditions: in vivo, other
# Gossypium hirsutum [8] = assay: Post-emergence phytotoxicity against Gossypium hirsutum (cotton) assessed as mortality at 1.6 g a.i/10 a applied 11 days after germination as foliar spray; assay type: organism-based; conditions: in vivo, other, 264 h
# Gossypium hirsutum [9] = assay: Post-emergence phytotoxicity against Gossypium hirsutum (cotton) assessed as mortality at 6.3 g a.i/10 a applied 11 days after germination as foliar spray; assay type: organism-based; conditions: in vivo, other, 264 h
# Glycine max [10] = assay: Post-emergence phytotoxicity against Glycine max (soybean) assessed as mortality at 6.3 g a.i/10 a applied 11 days after germination as foliar spray; assay type: organism-based; conditions: in vivo, other, 264 h
# Glycine max [11] = assay: Post-emergence phytotoxicity against Glycine max (soybean) assessed as mortality at 1.6 g a.i/10 a applied 11 days after germination as foliar spray; assay type: organism-based; conditions: in vivo, other, 264 h
# Zea mays [12] = assay: Post-emergence phytotoxicity against Zea mays (maize) assessed as mortality at 1.6 g a.i/10 a applied 11 days after germination as foliar spray; assay type: organism-based; conditions: in vivo, other, 264 h
# Zea mays [13] = assay: Post-emergence phytotoxicity against Zea mays (maize) assessed as mortality at 6.3 g a.i/10 a applied 11 days after germination as foliar spray; assay type: organism-based; conditions: in vivo, other, 264 h
# Echinochloa crus-galli [14] = assay: Post-emergence herbicidal activity against Echinochloa crus-galli (barnyard grass) assessed as mortality at 1.6 g a.i/10 a applied 11 days after germination as foliar spray; assay type: functional; conditions: 264 h
# Echinochloa crus-galli [15] = assay: Post-emergence herbicidal activity against Echinochloa crus-galli (barnyard grass) assessed as mortality at 6.3 g a.i/10 a applied 11 days after germination as foliar spray; assay type: functional; conditions: 264 h
# Xanthium strumarium [16] = assay: Pre-emergence herbicidal activity against Xanthium strumarium (cocklebur) assessed as mortality at 1.6 g a.i/10 a; assay type: functional
# Xanthium strumarium [17] = assay: Pre-emergence herbicidal activity against Xanthium strumarium (cocklebur) assessed as mortality at 6.3 g a.i/10 a; assay type: functional
# Ipomoea lacunosa [18] = assay: Pre-emergence herbicidal activity against Ipomoea lacunosa assessed as mortality at 1.6 g a.i/10 a; assay type: functional
# Abutilon theophrasti [19] = assay: Pre-emergence herbicidal activity against Abutilon theophrasti (velvetleaf) assessed as mortality at 1.6 g a.i/10 a; assay type: functional
# Gossypium hirsutum [20] = assay: Post-emergence phytotoxicity against Gossypium hirsutum (cotton) assessed as mortality per 10 acre; assay type: organism-based; conditions: in vivo
# Ipomoea lacunosa [21] = assay: Post-emergence herbicidal activity against Ipomoea lacunosa assessed as mortality at 1.6 g a.i/10 a applied 11 days after germination as foliar spray; assay type: functional; conditions: 264 h
# Abutilon theophrasti [22] = assay: Post-emergence herbicidal activity against Abutilon theophrasti (velvetleaf) assessed as mortality at 1.6 g a.i/10 a applied 11 days after germination as foliar spray; assay type: functional; conditions: 264 h
# Gossypium hirsutum [23] = assay: as §1; assay type: organism-based; conditions: in vivo, other
# Glycine max [24] = assay: as §2; assay type: organism-based; conditions: in vivo, other
# Glycine max [25] = assay: as §3; assay type: organism-based; conditions: in vivo, other
# Zea mays [26] = assay: as §4; assay type: organism-based; conditions: in vivo, other
# Xanthium strumarium [27] = assay: Post-emergence herbicidal activity against Xanthium strumarium (cocklebur) assessed as mortality at 1.6 g a.i/10 a applied 11 days after germination as foliar spray; assay type: functional; conditions: 264 h
# Cyperus iria [28] = assay: Pre-emergence herbicidal activity against Cyperus iria assessed as growth inhibition at 25 g a.i/10 a; assay type: functional, organism-based
# Chenopodium album [29] = assay: Pre-emergence herbicidal activity against Chenopodium album assessed as growth inhibition at 25 g a.i/10 a; assay type: functional, organism-based
# Amaranthus retroflexus [30] = assay: Pre-emergence herbicidal activity against Amaranthus retroflexus assessed as growth inhibition at 25 g a.i/10 a; assay type: functional, organism-based
# Persicaria nodosa [31] = assay: Pre-emergence herbicidal activity against Persicaria nodosa assessed as growth inhibition at 25 g a.i/10 a; assay type: functional, organism-based
# Digitaria sanguinalis [32] = assay: Pre-emergence herbicidal activity against Digitaria sanguinalis (hairy crabgrass) assessed as growth inhibition at 25 g a.i/10 a; assay type: functional, organism-based
# Echinochloa crus-galli [33] = assay: Pre-emergence herbicidal activity against Echinochloa crus-galli (barnyard grass) assessed as growth inhibition at 25 g a.i/10 a; assay type: functional, organism-based
# Cyperus iria [34] = assay: Post-emergence herbicidal activity against Cyperus iria assessed as growth inhibition at 25 g a.i/10 a applied 11 days after germination as foliar spray; assay type: functional, organism-based
# Chenopodium album [35] = assay: Post-emergence herbicidal activity against Chenopodium album assessed as growth inhibition at 25 g a.i/10 a applied 11 days after germination as foliar spray; assay type: functional, organism-based
# Amaranthus retroflexus [36] = assay: Post-emergence herbicidal activity against Amaranthus retroflexus assessed as growth inhibition at 25 g a.i/10 a applied 11 days after germination as foliar spray; assay type: functional, organism-based
# Persicaria nodosa [37] = assay: Post-emergence herbicidal activity against Persicaria nodosa assessed as growth inhibition at 25 g a.i/10 a applied 11 days after germination as foliar spray; assay type: functional, organism-based
# Digitaria sanguinalis [38] = assay: Post-emergence herbicidal activity against Digitaria sanguinalis (hairy crabgrass) assessed as growth inhibition at 25 g a.i/10 a applied 11 days after germination as foliar spray; assay type: functional, organism-based
# Echinochloa crus-galli [39] = assay: Post-emergence herbicidal activity against Echinochloa crus-galli (barnyard grass) assessed as growth inhibition at 25 g a.i/10 a applied 11 days after germination as foliar spray; assay type: functional, organism-based
# Ipomoea lacunosa [40] = assay: Pre-emergence herbicidal activity against Ipomoea lacunosa assessed as mortality per 10 acre; assay type: functional
# Persicaria nodosa [41] = assay: Pre-emergence herbicidal activity against Persicaria nodosa assessed as mortality per 10 acre; assay type: functional
# Amaranthus retroflexus [42] = assay: Pre-emergence herbicidal activity against Amaranthus retroflexus assessed as mortality per 10 acre; assay type: functional
# Echinochloa crus-galli [43] = assay: Pre-emergence herbicidal activity against Echinochloa crus-galli (barnyard grass) assessed as mortality per 10 acre; assay type: functional
# Gossypium hirsutum [44] = assay: Pre-emergence phytotoxicity against Gossypium hirsutum (cotton) assessed as mortality per 10 acre; assay type: organism-based; conditions: in vivo
# Xanthium strumarium [45] = assay: Post-emergence herbicidal activity against Xanthium strumarium (cocklebur) assessed as mortality per 10 acre; assay type: functional
# Ipomoea lacunosa [46] = assay: Post-emergence herbicidal activity against Ipomoea lacunosa assessed as mortality per 10 acre; assay type: functional
# Persicaria nodosa [47] = assay: Post-emergence herbicidal activity against Persicaria nodosa assessed as mortality per 10 acre; assay type: functional
# Amaranthus retroflexus [48] = assay: Post-emergence herbicidal activity against Amaranthus retroflexus assessed as mortality per 10 acre; assay type: functional
# Echinochloa crus-galli [49] = assay: Post-emergence herbicidal activity against Echinochloa crus-galli (barnyard grass) assessed as mortality per 10 acre; assay type: functional
# Ipomoea lacunosa [50] = assay: Pre-emergence herbicidal activity against Ipomoea lacunosa assessed as mortality at 6.3 g a.i/10 a; assay type: functional; conditions: Ipomoea lacunosa, pre-emergence
# Xanthium strumarium [51] = assay: Pre-emergence herbicidal activity against Xanthium strumarium (cocklebur) assessed as mortality per 10 acre; assay type: functional
# Abutilon theophrasti [52] = assay: Pre-emergence herbicidal activity against Abutilon theophrasti (velvetleaf) assessed as mortality at 6.3 g a.i/10 a; assay type: functional; conditions: Abutilon theophrasti, pre-emergence
# [53] = Xanthium strumarium, pre-emergence
smiles,measurement,setting,value
CCSc1cccc(Sc2nc(OC)cc(OC)n2)c1C(=O)O,mortality at 63 g/ha,Abutilon theophrasti [1],> 90%
same,mortality,[2],< 50%
same,Activity,Gossypium hirsutum [3],< 50%
same,mortality,[4],< 50%
same,mortality,[5],< 50%
same,mortality,[6],< 50%
same,Activity,Zea mays [7],Non-toxic
same,Activity,Gossypium hirsutum [8],Non-toxic
same,Activity,Gossypium hirsutum [9],Non-toxic
same,Activity,Glycine max [10],Toxic
same,Activity,Glycine max [11],Toxic
same,Activity,Zea mays [12],Toxic
same,Activity,Zea mays [13],Toxic
same,mortality at 16 g/ha,Echinochloa crus-galli [14],< 5%
same,mortality at 63 g/ha,Echinochloa crus-galli [15],< 5%
same,Activity,Xanthium strumarium [16],<50%
same,Activity,Xanthium strumarium [17],<50%
same,Activity,Ipomoea lacunosa [18],<50%
same,Activity,Abutilon theophrasti [19],<50%
COc1cc(OC)nc(Oc2ccccc2C(=O)O)n1,ED20,Gossypium hirsutum [20],12 gAi
same,mortality at 16 g/ha,Ipomoea lacunosa [21],< 5%
same,mortality at 16 g/ha,Abutilon theophrasti [22],< 5%
same,Activity,Gossypium hirsutum [23],Non-toxic
same,Activity,Gossypium hirsutum [3],Non-toxic
same,Activity,Glycine max [24],Non-toxic
same,Activity,Glycine max [25],Non-toxic
same,Activity,Zea mays [26],Non-toxic
same,Activity,Zea mays [7],Toxic
same,Activity,Gossypium hirsutum [8],Toxic
same,Activity,Gossypium hirsutum [9],Toxic
same,Activity,Glycine max [10],Toxic
same,Activity,Glycine max [11],Toxic
same,Activity,Zea mays [12],Toxic
same,mortality at 16 g/ha,Xanthium strumarium [27],< 5%
same,growth inhibition (GI),Cyperus iria [28],Active
same,growth inhibition (GI),Chenopodium album [29],Active
same,growth inhibition (GI),Amaranthus retroflexus [30],Active
same,growth inhibition (GI),Persicaria nodosa [31],inactive
same,growth inhibition (GI),Digitaria sanguinalis [32],Active
same,growth inhibition (GI),Echinochloa crus-galli [33],Active
same,growth inhibition (GI),Cyperus iria [34],Active
same,growth inhibition (GI),Chenopodium album [35],Active
same,growth inhibition (GI),Amaranthus retroflexus [36],Active
same,growth inhibition (GI),Persicaria nodosa [37],Active
same,growth inhibition (GI),Digitaria sanguinalis [38],Active
same,growth inhibition (GI),Echinochloa crus-galli [39],Active
same,ED90,Ipomoea lacunosa [40],>100 gAi
same,ED90,Persicaria nodosa [41],12 gAi
same,ED90,Amaranthus retroflexus [42],Active
same,ED90,Echinochloa crus-galli [43],12 gAi
same,ED20,Gossypium hirsutum [44],12 gAi
same,ED90,Xanthium strumarium [45],>100 gAi
same,ED90,Ipomoea lacunosa [46],>100 gAi
same,ED90,Persicaria nodosa [47],12 gAi
same,ED90,Amaranthus retroflexus [48],12 gAi
same,ED90,Echinochloa crus-galli [49],50 gAi
same,mortality at 16 g/ha,Xanthium strumarium [16]; [53],< 5%
same,mortality at 63 g/ha,Xanthium strumarium [17]; [53],< 5%
same,mortality at 16 g/ha,"Ipomoea lacunosa [18]; Ipomoea lacunosa, pre-emergence",< 5%
same,mortality at 63 g/ha,Ipomoea lacunosa [50],< 5%
same,ED90,Xanthium strumarium [51],>100 gAi
same,mortality at 16 g/ha,"Abutilon theophrasti [19]; Abutilon theophrasti, pre-emergence",< 5%
same,mortality at 63 g/ha,Abutilon theophrasti [52],< 5%
